Reference: EP2423181A1, “Multitarget substituted biphenyl diol derivatives” (PROUS INSTITUTE FOR BIOMEDICAL RESEARCH S.A., priority 2010, dated 2012)
pIC50: −log10 of the molar value. Where a name gives a salt, the structure may show the parent alone. Read-outs that look alike come from different tables or passages of the source. Blank lines part the entries; values can stand above or below the compound they belong to.

Experiments:
Src = target: T1, Src (Homo sapiens, UniProt P12931); assay: Src protein tyrosine kinase inhibition (ELISA of Poly[Glu:Tyr-P]); assay type: biochemical
T1 construct: host or cells: Sf9 insect cells
T1 sequence (P12931 whole entry): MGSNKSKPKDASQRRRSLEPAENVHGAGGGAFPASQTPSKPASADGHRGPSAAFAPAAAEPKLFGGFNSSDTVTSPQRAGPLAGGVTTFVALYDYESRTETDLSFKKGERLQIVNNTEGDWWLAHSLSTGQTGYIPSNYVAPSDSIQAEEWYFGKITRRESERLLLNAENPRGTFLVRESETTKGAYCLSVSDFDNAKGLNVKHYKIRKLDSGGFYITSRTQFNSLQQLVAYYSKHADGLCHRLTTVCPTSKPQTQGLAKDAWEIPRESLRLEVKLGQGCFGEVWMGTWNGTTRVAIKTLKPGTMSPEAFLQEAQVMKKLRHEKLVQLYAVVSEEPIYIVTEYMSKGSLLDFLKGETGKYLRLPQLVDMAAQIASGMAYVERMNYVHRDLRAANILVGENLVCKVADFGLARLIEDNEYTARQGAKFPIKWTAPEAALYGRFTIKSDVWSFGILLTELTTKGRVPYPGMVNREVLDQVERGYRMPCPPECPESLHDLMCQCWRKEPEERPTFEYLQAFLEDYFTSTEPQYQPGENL
Method: Src protein tyrosine kinase activity was assessed in human recombinant insect Sf9 cells using as a substrate Poly(Glu:Tyr) at 10 µg/mL with preincubation and incubation times of 15 and 5 min, respectively, at 22°C in 50 mM HEPES, pH 7.4, 1 mM DTT, 20 mM MgCl2 and 0.2 mM Na3VO4. An ELISA quantitation method of Poly[Glu:Tyr-P] was employed (Farley, K et al. Anal Biochem, 1992, 203, 151-157). Table 4. Inhibition of Src at 10 µM

MAPK1 (ERK2) = target: T2, MAPK1 (ERK2) (Homo sapiens, UniProt P28482); assay: MAPK1 (ERK2) kinase inhibition ([32P]MBP); assay type: biochemical
T2 construct: host or cells: E. coli
T2 sequence (P28482 whole entry): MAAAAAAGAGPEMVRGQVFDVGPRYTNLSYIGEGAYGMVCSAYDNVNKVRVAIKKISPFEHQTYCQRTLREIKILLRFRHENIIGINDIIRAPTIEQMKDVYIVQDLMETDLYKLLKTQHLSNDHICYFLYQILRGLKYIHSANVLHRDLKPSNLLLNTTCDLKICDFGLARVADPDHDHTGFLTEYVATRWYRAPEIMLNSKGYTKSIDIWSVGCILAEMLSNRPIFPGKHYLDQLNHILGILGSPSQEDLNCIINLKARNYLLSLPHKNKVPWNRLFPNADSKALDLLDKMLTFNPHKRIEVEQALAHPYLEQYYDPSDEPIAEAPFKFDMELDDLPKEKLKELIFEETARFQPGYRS
Method: Protein serine threonine kinase MAPK1(ERK2) was assessed in human recombinant E.Coli using 50 µg/ml myelin basic protein (MBP) as a substrate after preincubation and incubation times of 15 and 30 min, respectively, at 37°C in 20 mM MOPS, pH 7.2, 5 mM EGTA, 20 mM MgCl2, 1 mM DTT, 25 mM β-glycerophosphate, 1 mM Na3VO4 incubation buffer. The inhibitory activity was measured by quantification of [^32P]MBP (Jonhson, G.L. and Lapadat, R. Science 2002, 298(5600), 1911-1912). Table 8. Inhibition of MAPK1 at 10 µM

tumor brain U-87 MG = assay: Tumor cell proliferation assay (alamarBlue); assay type: cell-based; details: Homo sapiens; tumor brain U-87 MG; read-out: IC50
In short: (§1)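 Proliferation changes are detected as viable cells reduce blue, non-fluorescent alamarBlue to a red, fluorescent product. Substances are examined across 0.01 to 100 µM on human or murine tumor lines.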

tumor breast MCF-7 = assay: Tumor cell proliferation assay (alamarBlue); assay type: cell-based; details: Homo sapiens, MCF7
In short: as §1

tumor breast MDA-MB-231 = assay: Tumor cell proliferation assay (alamarBlue); assay type: cell-based; details: Homo sapiens
In short: as §1

tumor breast T-47D = assay: Tumor cell proliferation assay (alamarBlue); assay type: cell-based; details: Homo sapiens, T47D
In short: as §1

tumor colon HCT-116 = assay: Tumor cell proliferation assay (alamarBlue); assay type: cell-based; details: Homo sapiens; tumor colon HCT-116; read-out: IC50
In short: as §1

tumor liver Hep 3B = assay: Tumor cell proliferation assay (alamarBlue); assay type: cell-based; details: Homo sapiens, Hep3B
In short: as §1

tumor ovary OVCAR-3 = assay: Tumor cell proliferation assay (alamarBlue); assay type: cell-based; details: Homo sapiens; tumor ovary OVCAR-3; read-out: IC50
In short: as §1

mice = assay: Formalin test (antinociceptive activity); assay type: in vivo; details: for Early Response / Late Response: formalin test, dose 10-30 mg/Kg i.p.; for Early Response: early response 0-5 min; for Late Response: late response 20-30 min
Method: The chemical irritant formalin test is used as a chronic pain model in animals. The s.c. administration of formalin to the paw of a mouse produces a biphasic nociceptive behavioral response, an early response (0-5 min after injection) and a late response (20-30 min after injection) (Hunskaar, S., Fasmer, O.B., Hole, K. Formalin test in mice, a useful technique for evaluating mild analgesics. J Neurosci Methods, 1985 ;14(1):69-76).
Aspirine and paracetamol are included as external active references in early and late response. Table 12. Early and late response inhibition in the formalin test.

5-LO = target: T3, 5-LO (Homo sapiens, UniProt P09917); assay: 5-Lipoxygenase inhibition (LTB4 enzyme immunoassay); assay type: biochemical
T3 construct: host or cells: Sf9 insect cells
T3 sequence (P09917 1-674): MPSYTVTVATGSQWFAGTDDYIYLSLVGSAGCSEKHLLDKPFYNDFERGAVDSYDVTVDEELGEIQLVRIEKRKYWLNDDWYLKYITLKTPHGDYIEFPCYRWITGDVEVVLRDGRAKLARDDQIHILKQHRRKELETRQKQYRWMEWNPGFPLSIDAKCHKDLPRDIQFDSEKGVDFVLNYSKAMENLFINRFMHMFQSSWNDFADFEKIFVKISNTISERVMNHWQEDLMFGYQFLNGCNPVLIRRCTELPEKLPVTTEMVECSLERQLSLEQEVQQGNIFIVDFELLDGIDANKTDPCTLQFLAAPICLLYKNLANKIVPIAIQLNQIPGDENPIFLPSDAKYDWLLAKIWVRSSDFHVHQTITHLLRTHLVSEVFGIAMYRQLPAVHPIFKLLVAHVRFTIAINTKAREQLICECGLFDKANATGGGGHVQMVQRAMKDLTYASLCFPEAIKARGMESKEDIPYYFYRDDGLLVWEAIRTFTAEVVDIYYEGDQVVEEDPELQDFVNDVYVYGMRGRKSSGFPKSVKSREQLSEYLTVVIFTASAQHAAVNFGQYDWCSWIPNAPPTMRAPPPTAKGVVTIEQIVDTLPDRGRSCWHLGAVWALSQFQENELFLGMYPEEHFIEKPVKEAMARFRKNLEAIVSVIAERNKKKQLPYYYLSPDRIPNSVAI
Method: The 5-LO-inhibitory activity of compounds of the invention was determined using previously reported assays. Briefly, lipoxygenase activity was evaluated in human recombinant insect Sf9 cells using 3µM arachidonic acid as a substrate with a preincubation and incubation times of 15 and 5 min respectively at 25°C in a 50 mM Tris-HCl, pH 7.4, 2 mM CaCl2, 1 mM ATP. The quantification method used was enzyme immunoassay determination of LTB4 and the significance criteria were established with a response equal or different of the maximum stimulation or inhibition (Noguchi, M. et al., Eur J Biochem, 1994, 222(2), 285-292; Percival, M.D. et al., Eur J Biochem, 1992, 210(1), 109-117).

[1] = 5-LO, at 10 µM, read-out: % Inhibition

Structure (SMILES): C=CCc1ccc(O)c(-c2cc(CC=C)ccc2OC(CCNC)c2ccccc2)c1.Cl (centres unmarked) [Example 1, 5,5'-Diallyl-2'-[3-(methylamino)-1-phenylpropoxy]biphenyl-2-ol hydrochloride]
inhibition at 10 µM (Src; Src, at 10 µM, read-out: % Inhibition): 99%
inhibition at 10 µM (MAPK1 (ERK2); MAPK1, at 10 µM, read-out: % Inhibition): 58%
pIC50 (tumor brain U-87 MG): 5.70
pIC50 (tumor breast MCF-7; tumor breast MCF-7, read-out: IC50): 5.80
pIC50 (tumor breast MDA-MB-231; tumor breast MDA-MB-231, read-out: IC50): 5.48
pIC50 (tumor breast T-47D; tumor breast T-47D, read-out: IC50): 4.89
pIC50 (tumor colon HCT-116): 5.37
pIC50 (tumor liver Hep 3B; tumor liver Hep 3B, read-out: IC50): 5.25
pIC50 (tumor ovary OVCAR-3): 5.34
antinociceptive activity in the formalin test (mice; 30 mg/kg i.p, early and late phases, potency similar to morphine 10 mg/kg i.p.): relevant antinociceptive activity
Early Response (mice): slightly active
Late Response (mice): active
inhibition at 10 µM (5-LO; [1]): 100%

pIC50 (tumor brain U-87 MG): 4.25
pIC50 (tumor colon HCT-116): 4.77
pIC50 (tumor ovary OVCAR-3): 4.42
inhibition at 10 µM (5-LO; [1]): 85%
Structure (SMILES): C=CCc1ccc(O)c(-c2ccc(O)c(CC=C)c2)c1 [Honokiol, reference compound]

Structure (SMILES): C=CCc1ccc(O)c(-c2ccc(OC(CCNC)c3ccccc3)c(CC=C)c2)c1 (centres unmarked) [Example 5, 3',5-Diallvl-4'-13-(methylamino)-1-phenylpropoxy]biphenyl-2-ol hydrochloride]
inhibition at 10 µM (Src): > 100%
inhibition at 10 µM (MAPK1 (ERK2)): 80%
pIC50 (tumor breast MCF-7): 5.35
pIC50 (tumor breast MDA-MB-231; MDA-MB-231): 5.68
pIC50 (tumor breast T-47D): 5.80
pIC50 (tumor liver Hep 3B): 5.72
Early Response (mice): slightly active
Late Response (mice): Active
inhibition at 10 µM (5-LO): 101%
